Counter-ions that a name gives are not always drawn.
Experiment: Particle Size Distribution (PSD) by Laser Diffraction Spectrometry (Malvern Mastersizer 2000)
Assay type: physicochemical
Settings: sample in heptane with 0.2% Span-20, by volume
Description: Laser Diffraction Spectrometry (LDS) was used to determine the Particle Size Distribution (PSD). The samples were prepared by mixing 100 mg of asenapine maleate with 5 mL of heptane that contains 0.2% of Span-20. Ultrasonic treatment of the samples was performed for 5 minutes and the PSD was analysed using a particle size analyzer Malvern Mastersizer 2000. Refractive index of asenapine 1.800 and absorption 0.01.

For CN1C[C@@H]2c3ccccc3Oc3ccc(Cl)cc3[C@H]2C1 (racemic) [Example 4, asenapine maleate], the “PSD d90” value was 21 μm.
In the case of CN1C[C@@H]2c3ccccc3Oc3ccc(Cl)cc3[C@H]2C1 (racemic) [Example 9, asenapine maleate], the “PSD d90” value is reported as 23 μm.
With CN1C[C@@H]2c3ccccc3Oc3ccc(Cl)cc3[C@H]2C1 (racemic) [Example 6, asenapine maleate] the “PSD d90” value was 46 μm.
In the case of CN1C[C@@H]2c3ccccc3Oc3ccc(Cl)cc3[C@H]2C1 (racemic) [Example 12, asenapine maleate], the “PSD d90” value is reported as 53 μm.
In the case of CN1C[C@@H]2c3ccccc3Oc3ccc(Cl)cc3[C@H]2C1 (racemic) [Example 1, asenapine maleate], the “PSD d90” value is reported as 16 μm.
In the case of CN1C[C@@H]2c3ccccc3Oc3ccc(Cl)cc3[C@H]2C1 (racemic) [Example 5, asenapine maleate], the “PSD d90” value is reported as 29 μm.
For CN1C[C@@H]2c3ccccc3Oc3ccc(Cl)cc3[C@H]2C1 (racemic) [Example 3, asenapine maleate], the “PSD d90” value was 31 μm.
With CN1C[C@@H]2c3ccccc3Oc3ccc(Cl)cc3[C@H]2C1 (racemic) [Example 8, asenapine maleate] the “PSD d90” value was 54 μm.
With CN1C[C@@H]2c3ccccc3Oc3ccc(Cl)cc3[C@H]2C1 (racemic) [Example 11, asenapine maleate] the “PSD d90” value was 17 μm.
For CN1C[C@@H]2c3ccccc3Oc3ccc(Cl)cc3[C@H]2C1 (racemic) [Example 7, asenapine maleate], the “PSD d90” value was 36 μm.
In the case of CN1C[C@@H]2c3ccccc3Oc3ccc(Cl)cc3[C@H]2C1 (racemic) [Example 13, asenapine maleate], the “PSD d90” value is reported as 31 μm.
In the case of CN1C[C@@H]2c3ccccc3Oc3ccc(Cl)cc3[C@H]2C1 (racemic) [Example 10, asenapine maleate], the “PSD d90” value is reported as 37 μm.
In the case of CN1C[C@@H]2c3ccccc3Oc3ccc(Cl)cc3[C@H]2C1 (racemic) [Example 2, asenapine maleate], the “PSD d90” value is reported as 15 μm.

For CN1C[C@@H]2c3ccccc3Oc3ccc(Cl)cc3[C@H]2C1 (racemic) [Example 4, asenapine maleate], the “PSD d95” value was 28 μm.
For CN1C[C@@H]2c3ccccc3Oc3ccc(Cl)cc3[C@H]2C1 (racemic) [Example 9, asenapine maleate], the “PSD d95” value was 28 μm.
In the case of CN1C[C@@H]2c3ccccc3Oc3ccc(Cl)cc3[C@H]2C1 (racemic) [Example 6, asenapine maleate], the “PSD d95” value is reported as 56 μm.
For CN1C[C@@H]2c3ccccc3Oc3ccc(Cl)cc3[C@H]2C1 (racemic) [Example 12, asenapine maleate], the “PSD d95” value was 120 μm.
With CN1C[C@@H]2c3ccccc3Oc3ccc(Cl)cc3[C@H]2C1 (racemic) [Example 1, asenapine maleate] the “PSD d95” value was 24 μm.
For CN1C[C@@H]2c3ccccc3Oc3ccc(Cl)cc3[C@H]2C1 (racemic) [Example 5, asenapine maleate], the “PSD d95” value was 35 μm.
With CN1C[C@@H]2c3ccccc3Oc3ccc(Cl)cc3[C@H]2C1 (racemic) [Example 3, asenapine maleate] the “PSD d95” value was 37 μm.
For CN1C[C@@H]2c3ccccc3Oc3ccc(Cl)cc3[C@H]2C1 (racemic) [Example 8, asenapine maleate], the “PSD d95” value was 68 μm.
For CN1C[C@@H]2c3ccccc3Oc3ccc(Cl)cc3[C@H]2C1 (racemic) [Example 11, asenapine maleate], the “PSD d95” value was 21 μm.
For CN1C[C@@H]2c3ccccc3Oc3ccc(Cl)cc3[C@H]2C1 (racemic) [Example 7, asenapine maleate], the “PSD d95” value was 48 μm.
In the case of CN1C[C@@H]2c3ccccc3Oc3ccc(Cl)cc3[C@H]2C1 (racemic) [Example 13, asenapine maleate], the “PSD d95” value is reported as 38 μm.
In the case of CN1C[C@@H]2c3ccccc3Oc3ccc(Cl)cc3[C@H]2C1 (racemic) [Example 10, asenapine maleate], the “PSD d95” value is reported as 49 μm.
In the case of CN1C[C@@H]2c3ccccc3Oc3ccc(Cl)cc3[C@H]2C1 (racemic) [Example 2, asenapine maleate], the “PSD d95” value is reported as 20 μm.

Experiment: Outcome of micronisation of asenapine maleate crystals
Assay type: physicochemical
Settings: micronised crystals, prepared as disclosed in U.S. Pat. No. 4,145,434
Description: As described in Funke et al., Arzneim.-Forsch./Drug Res., 40:536-539 (1990), asenapine maleate (Form H) was the first known polymorphic form. Form H is a monoclinic crystalline form having a melting point in the range of 141° C. to 145° C. EP 1 710 245 B1 and EP 1 917 267 B1 described the discovery of a new form of asenapine maleate (Form L), which is an orthorhombic crystalline form having a melting point in the range of 138° C. to 142° C. EP 1 710 245 131 and EP 1 917 267 B1 mention the importance of asenapine particle size since asenapine commercial sublingual tablets are dissolved in the mouth. Thus, particles having a size distribution characterized by a d95 (95% volume of the particles are smaller than or equal to the indicated size) of about 100 μm or less, more preferably about 50 μm or less, and even more preferably about 30 μm or less, is desirable for sublingual formulations. According to EP 1 710 245 B1 and EP 1 917 267 B1, the outcome of the micronisation process used therein, and which is necessary to reduce the particle size of crystals, appeared to be unpredictable when crystals of monoclinic form of asenapine maleate were subjected to the micronisation process. […]

With CN1C[C@@H]2c3ccccc3Oc3ccc(Cl)cc3[C@H]2C1 (racemic) [monoclinic form of asenapine maleate, asenapine maleate] the “polymorphic stability after micronisation” value was “not stable and eventually evolved to the orthorhombic crystalline form”.

Experiment: not given
Settings: micronised, per EP 1 710 245 B1 and EP 1 917 267 B1; cited from earlier work

For CN1C[C@@H]2c3ccccc3Oc3ccc(Cl)cc3[C@H]2C1 (racemic) [asenapine maleate], the d95 after micronisation is listed as no more than 30 μm.
